Results reported in patent publication US20220347175A1, “PYRIDAZINONE DERIVATIVE” (Sumitomo Dainippon Pharma Co., Ltd., priority 2018, published 2022).

How the values were obtained:
human Nav1.1 = target: T1, human Nav1.1 (Homo sapiens, UniProt P35498); test: Amplification of Nav1.1-derived voltage-dependent sodium current (Nav1.1 current), cell line stably expressing human Nav1.1, automated patch clamp; type: cell-based
T1 construct: host or cells: HEK293
Outline: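 Amplification rate (%) is 100 × post-compound/pre-compound Nav1.1 peak current or AUC, minus 100. Ramp-evoked sodium currents were recorded by automated patch clamp in a human Nav1.1 HEK293 stable line, restricted to cells exceeding 500 pA, with compounds added in extracellular solution containing 1% DMSO.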

human Nav1.5 = target: T2, human Nav1.5 (Homo sapiens, UniProt Q14524); test: Amplification of Nav1.5-derived voltage-dependent sodium current (Nav1.5 current), cell line stably expressing human Nav1.5, automated patch clamp; type: cell-based
T2 construct: expressed in transfected cells; host or cells: CHO-K1 (T-REx System, ThermoFisher Scientific)

[1] = 10 μmol/L compound, change of the area under the curve of Nav1.1 current (Test Result 1), read-out: Nav1.1 current amplification rate (%)
[2] = 10 μmol/L compound, change of the area under the curve of Nav1.5 current (Test Result 1), read-out: Nav1.5 current amplification rate (%)
[3] = 10 μmol/L compound, change of the area under the curve of Nav1.1 current (Test Result 1)
[4] = 10 μmol/L compound, change of the area under the curve of Nav1.5 current (Test Result 1)
[5] = compound 3 μmol/L, HEK293 stably expressing human Nav1.1
[6] = compound 3 μmol/L, CHO-K1 stably expressing human Nav1.5
[7] = compound 1 μmol/L, HEK293 stably expressing human Nav1.1, read-out: Nav1.1 current amplification rate (%)
[8] = compound 1 μmol/L, CHO-K1 stably expressing human Nav1.5, read-out: Nav1.5 current amplification rate (%)
[9] = compound 1 μmol/L, HEK293 stably expressing human Nav1.1
[10] = compound 1 μmol/L, CHO-K1 stably expressing human Nav1.5

T2 sequence (Q14524 1-2015 isoform Q14524-2): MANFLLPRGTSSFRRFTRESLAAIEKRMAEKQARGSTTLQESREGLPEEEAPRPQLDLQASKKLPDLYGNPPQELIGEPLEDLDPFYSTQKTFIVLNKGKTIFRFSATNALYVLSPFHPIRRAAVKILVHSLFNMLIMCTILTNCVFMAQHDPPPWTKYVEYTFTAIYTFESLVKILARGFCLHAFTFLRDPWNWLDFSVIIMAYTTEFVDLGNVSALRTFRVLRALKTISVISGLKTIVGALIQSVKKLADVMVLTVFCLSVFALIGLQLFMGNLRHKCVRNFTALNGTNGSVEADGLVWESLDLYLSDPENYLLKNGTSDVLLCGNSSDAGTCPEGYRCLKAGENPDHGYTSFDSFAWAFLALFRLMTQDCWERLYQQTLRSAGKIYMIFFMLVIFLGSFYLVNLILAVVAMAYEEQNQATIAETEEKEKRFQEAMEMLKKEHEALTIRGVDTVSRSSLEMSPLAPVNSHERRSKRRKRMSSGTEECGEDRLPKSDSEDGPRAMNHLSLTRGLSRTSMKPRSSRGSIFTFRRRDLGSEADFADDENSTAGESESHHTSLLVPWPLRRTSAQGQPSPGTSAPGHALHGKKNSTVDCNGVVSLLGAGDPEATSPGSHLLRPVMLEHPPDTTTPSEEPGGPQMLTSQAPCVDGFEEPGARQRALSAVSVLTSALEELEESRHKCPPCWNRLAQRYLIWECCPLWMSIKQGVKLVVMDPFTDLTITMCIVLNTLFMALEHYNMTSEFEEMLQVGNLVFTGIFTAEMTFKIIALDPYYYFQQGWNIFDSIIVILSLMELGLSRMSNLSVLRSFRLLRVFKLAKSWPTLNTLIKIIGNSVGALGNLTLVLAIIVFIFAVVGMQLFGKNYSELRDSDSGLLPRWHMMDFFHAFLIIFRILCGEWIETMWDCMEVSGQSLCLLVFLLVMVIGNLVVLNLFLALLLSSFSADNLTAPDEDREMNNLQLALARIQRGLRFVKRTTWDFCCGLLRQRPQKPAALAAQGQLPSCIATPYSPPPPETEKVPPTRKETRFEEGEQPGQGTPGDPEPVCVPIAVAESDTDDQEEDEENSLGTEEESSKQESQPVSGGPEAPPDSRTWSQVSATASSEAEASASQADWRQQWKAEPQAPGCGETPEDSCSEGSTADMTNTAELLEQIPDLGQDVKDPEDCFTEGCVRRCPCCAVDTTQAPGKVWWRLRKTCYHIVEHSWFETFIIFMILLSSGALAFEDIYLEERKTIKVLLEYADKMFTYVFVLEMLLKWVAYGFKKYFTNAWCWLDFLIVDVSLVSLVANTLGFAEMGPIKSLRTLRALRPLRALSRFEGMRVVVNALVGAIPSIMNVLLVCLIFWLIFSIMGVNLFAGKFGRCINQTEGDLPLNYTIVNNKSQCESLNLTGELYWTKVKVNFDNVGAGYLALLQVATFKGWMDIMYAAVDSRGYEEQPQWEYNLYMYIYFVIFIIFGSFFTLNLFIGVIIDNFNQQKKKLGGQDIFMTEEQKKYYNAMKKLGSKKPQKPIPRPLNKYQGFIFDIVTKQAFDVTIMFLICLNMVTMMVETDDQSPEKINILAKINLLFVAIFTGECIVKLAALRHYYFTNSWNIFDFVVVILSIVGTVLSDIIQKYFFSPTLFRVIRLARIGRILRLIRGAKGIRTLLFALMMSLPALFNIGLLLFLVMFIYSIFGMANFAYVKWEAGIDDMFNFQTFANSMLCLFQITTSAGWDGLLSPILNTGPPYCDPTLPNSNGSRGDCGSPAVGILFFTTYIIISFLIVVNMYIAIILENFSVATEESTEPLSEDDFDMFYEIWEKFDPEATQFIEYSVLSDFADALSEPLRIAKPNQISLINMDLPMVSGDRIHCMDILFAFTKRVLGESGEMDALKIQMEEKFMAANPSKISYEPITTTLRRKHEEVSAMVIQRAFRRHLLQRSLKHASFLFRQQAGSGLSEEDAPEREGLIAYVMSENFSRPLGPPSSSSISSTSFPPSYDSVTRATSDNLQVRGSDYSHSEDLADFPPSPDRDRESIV

Compound: O=C(Cn1nc(N2CCC3(CCCC3)CC2)ccc1=O)Nc1ccc2ocnc2c1 [Example 135]
- activation at 10 µM (human Nav1.1; [1]): 195%
- activation at 10 µM (human Nav1.5; [2]): 2%

Compound: COc1cc(C2=CCC(C)CC2)nn(CC(=O)Nc2ccn3ccnc3c2)c1=O (stereo not shown) [Example 463]
- Nav1.1 current amplification rate (%) (human Nav1.1; [3]): 218%
- Nav1.5 current amplification rate (%) (human Nav1.5; [4]): 9%

Compound: Cc1nc2cc(NC(=O)Cn3nc(C4=CCC(C)CC4)ccc3=O)ccc2o1 (stereo not shown) [Example 422]
- Nav1.1 current amplification rate (%) (human Nav1.1; [3]): 287%
- Nav1.5 current amplification rate (%) (human Nav1.5; [4]): 28%

Compound: CC1CCN(c2ccc(=O)n(CC(=O)Nc3ccc4c(c3)ncn4C)n2)CC1 [Example 98]
- Nav1.1 current amplification rate (%) (human Nav1.1; [3]): 15%
- Nav1.5 current amplification rate (%) (human Nav1.5; [4]): 4%

Compound: CC1CC=C(c2ccc(=O)n(CC(=O)N3CC=C(c4ccccc4)CC3)n2)CC1 (racemic) [Example 257]
- Nav1.1 current amplification rate (%) (human Nav1.1; [5]): 45%
- Nav1.5 current amplification rate (%) (human Nav1.5; [6]): 0%

Compound: COc1ncc(C2=CCN(C(=O)Cn3nc(C4=CCC(C(F)(F)F)CC4)ccc3=O)CC2)cn1 (stereo not shown) [Example 510]
- activation at 3 µM (human Nav1.1; compound 3 μmol/L, HEK293 stably expressing human Nav1.1, read-out: Nav1.1 current amplification rate (%)): 50%
- activation at 3 µM (human Nav1.5; compound 3 μmol/L, CHO-K1 stably expressing human Nav1.5, read-out: Nav1.5 current amplification rate (%)): 7%

Compound: Cc1cc(=O)n(CC(=O)Nc2ccn3ncnc3c2)nc1C1=CCC(C)(C)CC1 [Example 503]
- activation at 1 µM (human Nav1.1; [7]): 58%
- activation at 1 µM (human Nav1.5; [8]): 10%

Compound: Cc1nc2cc(NC(=O)Cn3nc(N4CCC(C)CC4)ccc3=O)ccc2o1 [Example 69]
- Nav1.1 current amplification rate (%) (human Nav1.1; [3]): 137%
- Nav1.5 current amplification rate (%) (human Nav1.5; [4]): 0%

Compound: O=C(Cn1nc(N2CCC3(CCC3)C2)ccc1=O)N1CCN(c2ccccc2)CC1 [Example 188]
- activation at 10 µM (human Nav1.1; [1]): 30%
- activation at 10 µM (human Nav1.5; [2]): -2%

Compound: CC1CC=C(c2ccc(=O)n(CC(=O)N3CCc4c(N5CCOCC5)cccc43)n2)CC1 (racemic) [Example 245]
- Nav1.1 current amplification rate (%) (human Nav1.1; [9]): 393%
- Nav1.5 current amplification rate (%) (human Nav1.5; [10]): 32%

Compound: N#Cc1cc(NC(=O)Cn2nc(C3=CCC(F)(F)CC3)ccc2=O)ccn1 [Example 115]
- activation at 10 µM (human Nav1.1; [1]): 56%
- activation at 10 µM (human Nav1.5; [2]): 12%

Compound: CC1(C)CC=C(c2ccc(=O)n(CC(=O)N3CCN(c4ccccn4)CC3)n2)CC1 [Example 439]
- Nav1.1 current amplification rate (%) (human Nav1.1; [3]): 87%
- Nav1.5 current amplification rate (%) (human Nav1.5; [4]): −4%

Compound: CC1CC=C(c2ccc(=O)n(CC(=O)Nc3ccn4nncc4c3)n2)CC1 (racemic) [Example 342]
- Nav1.1 current amplification rate (%) (human Nav1.1; [9]): 109%
- Nav1.5 current amplification rate (%) (human Nav1.5; [10]): 52%

Compound: Cc1nc2cc(NC(=O)Cn3nc(C4=CCC(C)CC4)ccc3=O)ccn2c1C (racemic) [Example 329]
- Nav1.1 current amplification rate (%) (human Nav1.1; [5]): 100%
- Nav1.5 current amplification rate (%) (human Nav1.5; [6]): 50%

Compound: COc1cc(=O)n(CC(=O)Nc2ccc3ocnc3c2)nc1C1=CCC(C)(C)CC1 [Example 451]
- Nav1.1 current amplification rate (%) (human Nav1.1; [3]): 365%
- Nav1.5 current amplification rate (%) (human Nav1.5; [4]): 30%

Compound: CC1(C)CC=C(c2ccc(=O)n(CC(=O)N3CCc4c(N5CCOCC5)cccc43)n2)CC1 [Example 432]
- Nav1.1 current amplification rate (%) (human Nav1.1; [9]): 280%
- Nav1.5 current amplification rate (%) (human Nav1.5; [10]): 16%

Compound: CC1CC=C(c2ccc(=O)n(CC(=O)N3CCc4c(C5CN(C6COC6)C5)cccc43)n2)CC1 (racemic) [Example 301]
- Nav1.1 current amplification rate (%) (human Nav1.1; [5]): 410%
- Nav1.5 current amplification rate (%) (human Nav1.5; [6]): 55%

Compound: CC1CC=C(c2ccc(=O)n(CC(=O)N3CCc4c(-c5cccnc5)cccc43)n2)CC1 (racemic) [Example 248]
- Nav1.1 current amplification rate (%) (human Nav1.1; [5]): 392%
- Nav1.5 current amplification rate (%) (human Nav1.5; [6]): 44%

Compound: CC1CC=C(c2ccc(=O)n(CC(=O)N3CCc4c(C5=CCNC5)cccc43)n2)CC1 (racemic) [Example 265]
- Nav1.1 current amplification rate (%) (human Nav1.1; [5]): 110%
- Nav1.5 current amplification rate (%) (human Nav1.5; [6]): 19%

Compound: CC1CC=C(c2ccc(=O)n(CC(=O)Nc3ccc4ocnc4c3)n2)CC1 (stereo not shown) [Example 531, N-(1,3-benzooxazol-5-yl)-2-[3-(4-methylcyclohex-1-en-1-yl)-6-oxopyridazin-1(6H)-yl]acetamide]
- activation at 1 µM (human Nav1.1; [7]): 183%
- activation at 1 µM (human Nav1.5; [8]): 8%

Compound: COc1cc(=O)n(CC(=O)N2CCN(c3cncc(F)c3)CC2)nc1C1=CCC(C)(C)CC1 [Example 490]
- Nav1.1 current amplification rate (%) (human Nav1.1; [3]): 469%
- Nav1.5 current amplification rate (%) (human Nav1.5; [4]): 25%

Compound: COc1cc(=O)n(CC(=O)Nc2ccc3ocnc3c2)nc1N1CCC2(CCCC2)C1 [Example 195]
- activation at 10 µM (human Nav1.1; [1]): 209%
- activation at 10 µM (human Nav1.5; [2]): 29%

Compound: O=C(Cn1nc(C2=CCC(F)(F)CC2)ccc1=O)N1CCc2c(N3CCOCC3)cccc21 [Example 469]
- Nav1.1 current amplification rate (%) (human Nav1.1; [3]): 243%
- Nav1.5 current amplification rate (%) (human Nav1.5; [4]): 25%

Compound: CC1CC=C(c2ccc(=O)n(CC(=O)N3CCc4c(-c5ccncc5)cccc43)n2)CC1 (racemic) [Example 250]
- Nav1.1 current amplification rate (%) (human Nav1.1; [5]): 564%
- Nav1.5 current amplification rate (%) (human Nav1.5; [6]): 121%

Compound: CC1CC=C(c2ccc(=O)n(CC(=O)N3CCc4c(C5CN(C(=O)C(C)(C)O)C5)cccc43)n2)CC1 (racemic) [Example 306]
- Nav1.1 current amplification rate (%) (human Nav1.1; [5]): 532%
- Nav1.5 current amplification rate (%) (human Nav1.5; [6]): 327%

Compound: Cc1c(N2CCC3(CCCC3)C2)nn(CC(=O)Nc2ccc3ocnc3c2)c(=O)c1C [Example 165]
- activation at 10 µM (human Nav1.1; [1]): 146%
- activation at 10 µM (human Nav1.5; [2]): 11%

Compound: Cc1ccc(N2CCN(C(=O)Cn3nc(C4=CCC(C)CC4)ccc3=O)CC2)cn1 (racemic) [Example 396]
- Nav1.1 current amplification rate (%) (human Nav1.1; [3]): 136%
- Nav1.5 current amplification rate (%) (human Nav1.5; [4]): 8%

Compound: CC1CC=C(c2ccc(=O)n(CC(=O)Nc3cc(F)c4ocnc4c3)n2)CC1 (racemic) [Example 241]
- Nav1.1 current amplification rate (%) (human Nav1.1; [3]): 260%
- Nav1.5 current amplification rate (%) (human Nav1.5; [4]): 26%

Compound: O=C(Cn1nc(C2=CCCCC2)ccc1=O)N1CCc2c(-c3cncnc3)cccc21 [Example 522]
- activation at 1 µM (human Nav1.1; [7]): 367%
- activation at 1 µM (human Nav1.5; [8]): 25%

Compound: CC1CC=C(c2ccc(=O)n(CC(=O)Nc3ccc4ncncc4c3)n2)CC1 (racemic) [Example 355]
- Nav1.1 current amplification rate (%) (human Nav1.1; [9]): 130%
- Nav1.5 current amplification rate (%) (human Nav1.5; [10]): 28%

Compound: CC1CC=C(c2ccc(=O)n(CC(=O)Nc3ccn4cncc4c3)n2)CC1 (racemic) [Example 338]
- Nav1.1 current amplification rate (%) (human Nav1.1; [9]): 241%
- Nav1.5 current amplification rate (%) (human Nav1.5; [10]): 49%

Compound: Cc1c(N2CCC(C)(C)CC2)nn(CC(=O)Nc2ccn3ccnc3c2)c(=O)c1C [Example 178]
- activation at 10 µM (human Nav1.1; [1]): 44%
- activation at 10 µM (human Nav1.5; [2]): 1%

Compound: CN(C)c1cc(N2CCC3(CCCC3)C2)nn(CC(=O)Nc2ccc3ocnc3c2)c1=O [Example 196]
- activation at 10 µM (human Nav1.1; [1]): 225%
- activation at 10 µM (human Nav1.5; [2]): 18%

Compound: CC1CCN(c2ccc(=O)n(CC(=O)Nc3ccc(C#N)nc3)n2)CC1 [Example 51]
- Nav1.1 current amplification rate (%) (human Nav1.1; [3]): 196%
- Nav1.5 current amplification rate (%) (human Nav1.5; [4]): 31%

Compound: COc1cc(C2=CCC(C)CC2)nn(CC(=O)Nc2ccc3ocnc3c2)c1=O (stereo not shown) [Example 449]
- Nav1.1 current amplification rate (%) (human Nav1.1; [3]): 250%
- Nav1.5 current amplification rate (%) (human Nav1.5; [4]): 12%
